Assay results as given in patent US8791115B2, “Combination of triazine derivatives and insulin sensitisers” (Poxel SAS, priority 2006, dated 2014).
Counter-ions that a name gives are not always drawn.

System: diabetic GK rats
Assay: Modulation of glucose levels (glycaemia and oral glucose tolerance test) in diabetic GK rats
Type: in vivo, rat
Settings: for % variation vs control (glycaemia after 4 days of treatment) / Glycaemia after 4 days of treatment: PO bid for 4 days, alone or combined; for Glycaemia before treatment: baseline before treatment
Method: Biological Test: Modulation of Glucose Levels with the Combinations of the Invention with Insulin Sensitisers
The capacity of the compounds of the invention in combination with insulin-sensitising antidiabetic compounds to modify the blood glucose levels is evaluated in vivo in diabetic GK rats.
Alone or in combination, the antidiabetic agents are administered twice a day (bid) to the GK rats for 4 days. The oral glucose tolerance test (OGTT) is performed after the last day of treatment.
OGTT is performed in the morning after 3 hours of fasting by oral administration of a glucose charge of 2 g/kg of body mass. The blood samples are collected from the tail vein at 0; 10; 20; 30; 45; 60; 90 and 120 minutes to determine the glucose levels.
The two compounds were administered alone and in combination. The doses used for the hydrochloride salt of (+)-2-amino-3,6-dihydro-4-dimethylamino-6-methyl-1,3,5-triazine were 50 and 100 mg/kg PO twice daily for 4 days.

[1] = GK rats, triazine salt 100 mg/kg, rosiglitazone 5 mg/kg

Compound	fasted plasmatic glucose level (GK rats, 4 days, rosiglitazone 5 mg/kg, triazine salt 100 mg/kg)	glucose tolerance, compared with rosiglitazone (GK rats, OGTT, triazine salt 100 mg/kg vs rosiglitazone 5 mg/kg)	% variation vs control (glycaemia after 4 days of treatment) [1] [%]	Glycaemia after 4 days of treatment [1] [mmol/L]	Glycaemia before treatment (GK rats) [mmol/L]	% decrease in AUC vs control (OGTT after 4 days of treatment PO bid, triazine salt 100 mg/kg, rosiglitazone 5 mg/kg) [%]	Glycaemia R under the curve (AUC) (OGTT, glucose 2 g/kg oral after 3 h fasting, 0-120 min, after 4 days of treatment PO bid, triazine salt 100 mg/kg, rosiglitazone 5 mg/kg)
CC1N=C(N)NC(N(C)C)=N1 (single isomer, unassigned; (+)) [(+)-2-amino-3,6-dihydro-4-dimethylamino-6-methyl-1,3,5-triazine hydrochloride]	induced a decrease	better glucose tolerance	−16	11.01 ± 0.37	12.95 ± 0.41	−19.6	2688 +/− 99
CN(CCOc1ccc(CC2SC(=O)NC2=O)cc1)c1ccccn1 (stereo not shown) [Rosiglitazone, rosiglitazone, reference compound]			−19.7	10.52 ± 0.84	12.81 ± 0.27		
